# Reference: publication PMC4588880, “Three genes encoding AOP2, a protein involved in aliphatic glucosinolate biosynthesis, are differentially expressed in Brassica rapa” (Journal of Experimental Botany, 2015)
# Tests used:
# Test in all cases: HPLC of desulfoglucosinolates, conversion to 3-butenyl glucosinolate
# Assay type in all cases: biochemical
# Conditions in all cases: 10 mM 2-oxoglutarate, 10 mM ascorbate, 200 uM FeSO4, 200 mM sucrose, 28 °C, 4 h
# [1] = biological target: T1, BrAOP2.3 (Brassica rapa, UniProt M4DPT0)
# T1 construct: full-length 428 aa, N-terminal thioredoxin/His fusion (pET-32a), E. coli BL21(DE3), Ni-NTA; chromosome A02
# T1 sequence (M4DPT0 1-428): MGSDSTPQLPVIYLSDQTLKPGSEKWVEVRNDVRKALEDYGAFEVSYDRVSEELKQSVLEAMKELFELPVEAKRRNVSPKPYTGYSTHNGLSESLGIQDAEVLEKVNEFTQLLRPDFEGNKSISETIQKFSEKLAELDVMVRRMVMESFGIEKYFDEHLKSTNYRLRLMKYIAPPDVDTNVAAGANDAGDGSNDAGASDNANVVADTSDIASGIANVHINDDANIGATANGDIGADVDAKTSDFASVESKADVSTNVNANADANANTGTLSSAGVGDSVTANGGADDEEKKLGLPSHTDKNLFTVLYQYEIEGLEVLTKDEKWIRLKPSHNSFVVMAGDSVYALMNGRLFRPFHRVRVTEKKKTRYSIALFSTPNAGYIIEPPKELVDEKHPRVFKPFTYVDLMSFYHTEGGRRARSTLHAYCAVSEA
# [2] = biological target: T2, BrAOP2.1 (Brassica rapa, UniProt M4EZD7, H308L)
# T2 construct: full-length 439 aa, N-terminal thioredoxin/His fusion (pET-32a), E. coli BL21(DE3), Ni-NTA; chromosome A09
# [3] = biological target: T3, BrAOP2.1 (Brassica rapa, UniProt M4EZD7)
# T3 construct: full-length 439 aa, N-terminal thioredoxin/His fusion (pET-32a), E. coli BL21(DE3), Ni-NTA; chromosome A09
# T3 sequence (M4EZD7 1-439): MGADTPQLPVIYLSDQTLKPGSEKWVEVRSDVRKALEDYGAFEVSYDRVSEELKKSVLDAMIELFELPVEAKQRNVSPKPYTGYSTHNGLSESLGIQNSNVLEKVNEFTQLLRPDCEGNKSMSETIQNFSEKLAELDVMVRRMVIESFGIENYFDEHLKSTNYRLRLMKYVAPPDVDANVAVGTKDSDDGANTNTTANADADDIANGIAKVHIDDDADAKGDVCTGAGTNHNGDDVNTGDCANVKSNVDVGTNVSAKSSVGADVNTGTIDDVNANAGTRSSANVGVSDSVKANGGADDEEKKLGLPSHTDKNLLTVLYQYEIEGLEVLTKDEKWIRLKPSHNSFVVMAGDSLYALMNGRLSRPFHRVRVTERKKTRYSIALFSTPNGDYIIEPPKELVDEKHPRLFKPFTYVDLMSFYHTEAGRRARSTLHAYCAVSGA
# T2 sequence (M4EZD7 entry or part of it H308L): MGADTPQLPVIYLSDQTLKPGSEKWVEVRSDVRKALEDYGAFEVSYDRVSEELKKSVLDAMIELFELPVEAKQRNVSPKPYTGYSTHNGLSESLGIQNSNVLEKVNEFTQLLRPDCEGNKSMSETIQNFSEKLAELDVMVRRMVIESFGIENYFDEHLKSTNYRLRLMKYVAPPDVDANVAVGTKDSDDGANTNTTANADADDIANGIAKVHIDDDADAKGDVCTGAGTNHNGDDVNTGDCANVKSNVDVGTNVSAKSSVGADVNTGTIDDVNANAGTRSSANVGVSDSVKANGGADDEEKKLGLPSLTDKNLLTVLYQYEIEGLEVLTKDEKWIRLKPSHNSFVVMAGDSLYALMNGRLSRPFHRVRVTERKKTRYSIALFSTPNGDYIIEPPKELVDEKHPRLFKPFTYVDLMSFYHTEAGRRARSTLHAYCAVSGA
compound,measurement,setting,value
C[S+]([O-])CCCC/C(=N/OS(=O)(=O)O)S[C@@H]1O[C@H](CO)[C@@H](O)[C@H](O)[C@H]1O (stereo partly drawn) [glucoraphanin],"HPLC of desulfoglucosinolates, conversion to 3-butenyl glucosinolate",[1],all three BrAOP2 proteins successfully catalysed the conversion of GRA to NAP
same,"HPLC of desulfoglucosinolates, conversion to 3-butenyl glucosinolate",[2],the purified H308L mutant enzyme was shown to still catalyse the conversion of GRA
same,"HPLC of desulfoglucosinolates, conversion to 3-butenyl glucosinolate",[3],all three BrAOP2 proteins successfully catalysed the conversion of GRA to NAP
